From BigSolDB 2.1

COc1cc2c(cc1OC)-c1cc3ccc(OC)c(OC)c3c[n+]1CC2.[Cl-]
solubility (mole fraction)
Conditions | 283.15 K | 288.15 K | 293.15 K | 298.15 K | 303.15 K | 308.15 K | 313.15 K | 318.15 K | 323.15 K | 328.15 K
in ethanol | 0.00254 | 0.00299 | 0.00366 | 0.0045 | 0.00543 | 0.00651 | 0.00779 | 0.00914 | 0.0108 | 0.0127
in ethylene glycol | 0.00173 | 0.00202 | 0.00242 | 0.003 | 0.00362 | 0.00441 | 0.00529 | 0.00631 | 0.00745 | 0.00882
in isopropanol | 0.000177 | 0.000218 | 0.00028 | 0.000374 | 0.000479 | 0.000603 | 0.000754 | 0.000933 | 0.00115 | 0.00141
in propylene glycol | 6.32e-06 | 9.38e-06 | 1.36e-05 | 2.11e-05 | 3.12e-05 | 4.53e-05 | 6.48e-05 | 9.27e-05 | 0.00013 | 0.00018
in water | 0.000565 | 0.000693 | 0.000877 | 0.0011 | 0.00136 | 0.00165 | 0.002 | 0.0024 | 0.00287 | 0.00341
